In PMC5681660, “Reduced hepatitis B and D viral entry using clinically applied drugs as novel inhibitors of the bile acid transporter NTCP” (Scientific Reports, 2017):
Counter-ions that a name gives are not always drawn. Like-named read-outs stand apart in the source and are kept apart here.

Key:
human NTCP [1] = target: T1, human NTCP (Homo sapiens, UniProt Q14973); assay: Screening taurocholate uptake assay (96-well, [14C]taurocholate, 10 µM drug)
T1 sequence (Q14973 1-349): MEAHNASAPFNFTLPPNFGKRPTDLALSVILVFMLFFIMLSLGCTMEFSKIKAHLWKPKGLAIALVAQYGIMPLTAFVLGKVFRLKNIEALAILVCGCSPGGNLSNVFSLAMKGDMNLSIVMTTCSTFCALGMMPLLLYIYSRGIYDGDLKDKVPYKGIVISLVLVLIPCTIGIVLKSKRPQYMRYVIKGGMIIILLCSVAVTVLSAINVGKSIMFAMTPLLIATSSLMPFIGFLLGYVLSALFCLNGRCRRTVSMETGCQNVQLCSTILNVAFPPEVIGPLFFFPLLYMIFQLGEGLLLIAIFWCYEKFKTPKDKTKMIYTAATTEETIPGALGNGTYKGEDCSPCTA

human NTCP [2] = target: T1, human NTCP; assay: Screening fluorescent competitive Myrcludex B-FITC binding assay (96-well, 10 µM drug)
[3] = Prestwick library screen, taurocholate uptake, 10 µM drug
[4] = ranking score beside the functional and binding assay B-scores of the screen
[5] = Prestwick library screen, Myrcludex B-FITC binding, 10 µM drug
[6] = Prestwick library screen, 10 µM drug, B-score of taurocholate uptake
[7] = combined ranking from functional and binding assay B-scores
[8] = Prestwick library screen, 10 µM drug, B-score of Myrcludex B-FITC binding
[9] = combined ranking from functional and binding screening assays
[10] = screen, 10 µM drug, taurocholate uptake
[11] = screen, 10 µM drug, Myrcludex B-FITC binding

| SMILES | B-score functional assay (human NTCP [1]; [6]) | Ranking score (human NTCP [1]; [7]) | B-score binding assay (human NTCP [2]; [8]) | also measured |
| --- | --- | --- | --- | --- |
| O=C1C(O)=C([C@H]2CC[C@H](c3ccc(Cl)cc3)CC2)C(=O)c2ccccc21 [Atovaquone] | – | – | – | B-score functional assay (human NTCP [1]; [3]): -0.283; Ranking score (human NTCP [1]; [4]): 659.659; B-score binding assay (human NTCP [2]; [5]): 0.68 |
| CC(=O)OC[C@H]1O[C@@H]([S-])[C@H](OC(C)=O)[C@@H](OC(C)=O)[C@@H]1OC(C)=O.CCP(CC)CC.[Au+] [Auranofin] | – | – | – | B-score functional assay (human NTCP [1]; [3]): 0.729; Ranking score (human NTCP [1]; [4]): 748.559; B-score binding assay (human NTCP [2]; [5]): -0.068 |
| Nc1nc(O)c2[nH]nnc2n1 [Azaguanine-8] | 3.711 | 1120.13 | 0.825 | – |
| O=C(CCCN1CCN(c2ccccn2)CC1)c1ccc(F)cc1 [Azaperone] | 0.852 | 931.399 | 0.326 | – |
| CCCC1C(=O)N2C(N(C)C)=Nc3ccc(C)cc3N2C1=O (stereo not drawn) [Azapropazone] | – | – | – | B-score functional assay (human NTCP [1]): -0.788; Ranking score (human NTCP [1]): 190.672; B-score binding assay (human NTCP [2]): -1.852 |
| CN1CCC(=C2c3ccccc3CCc3cccnc32)CC1 [Azatadine maleate] | 0.678 | 1070.86 | 1.844 | – |
| Cn1cnc([N+](=O)[O-])c1Sc1ncnc2nc[nH]c12 [Azathioprine] | 1.292 | 1083.5 | 1.035 | – |
| CN1CCCC(n2nc(Cc3ccc(Cl)cc3)c3ccccc3c2=O)CC1 (stereo not drawn) [Azelastine HCl] | 1.435 | 940.553 | 0.157 | – |
| CC[C@H]1OC(=O)[C@H](C)[C@@H](O[C@H]2C[C@@](C)(OC)[C@@H](O)[C@H](C)O2)[C@H](C)[C@@H](O[C@@H]2O[C@H](C)C[C@H](N(C)C)[C@H]2O)[C@](C)(O)C[C@@H](C)CN(C)[C@H](C)[C@@H](O)[C@]1(C)O [Azithromycin] | 0.119 | 972.082 | 2.513 | – |
| C[C@H]1[C@H](NC(=O)/C(=N\OC(C)(C)C(=O)O)c2csc(N)n2)C(=O)N1S(=O)(=O)O [Aztreonam] | 1.332 | 1061.36 | 0.858 | – |
| O=C([O-])CCNC(=O)c1ccc(/N=N/c2ccc(O)c(C(=O)[O-])c2)cc1.[Na+].[Na+] [Balsalazide Sodium] | – | – | – | Ranking score (human NTCP [1]; [9]): 403.097; B-score functional assay (human NTCP [1]; [10]): -0.35; B-score binding assay (human NTCP [2]; [11]): -0.506 |
| CCOC(=O)[C@H](CCc1ccccc1)N[C@H]1CCc2ccccc2N(CC(=O)O)C1=O [Benazepril HCl] | 1.384 | 918.755 | 0.109 | – |
| CCCCOc1cc(C(=O)OCCN(CC)CC)ccc1N [Benoxinate hydrochloride] | – | – | – | Ranking score (human NTCP [1]; [9]): 454.623; B-score functional assay (human NTCP [1]; [10]): 0.537; B-score binding assay (human NTCP [2]; [11]): -1.11 |
| O=C(CCCN1CCC(n2c(O)nc3ccccc32)CC1)c1ccc(F)cc1 [Benperidol] | – | – | – | Ranking score (human NTCP [1]; [9]): 422.659; B-score functional assay (human NTCP [1]; [10]): 0.351; B-score binding assay (human NTCP [2]; [11]): -1.201 |
| CC1(C)S[C@@H]2[C@H](NC(=O)Cc3ccccc3)C(=O)N2[C@H]1C(=O)O.CC1(C)S[C@@H]2[C@H](NC(=O)Cc3ccccc3)C(=O)N2[C@H]1C(=O)O.c1ccc(CNCCNCc2ccccc2)cc1 [Benzathine benzylpenicillin] | – | – | – | B-score functional assay (human NTCP [1]; [3]): -0.072; Ranking score (human NTCP [1]; [4]): 672.134; B-score binding assay (human NTCP [2]; [5]): 0.21 |
| O=C(Oc1cccc2cccnc12)c1ccccc1 [Benzoxiquine] | – | – | – | Ranking score (human NTCP [1]; [9]): 381.13; B-score functional assay (human NTCP [1]; [10]): -0.093; B-score binding assay (human NTCP [2]; [11]): -0.876 |
| NS(=O)(=O)c1cc2c(cc1Cl)N=C(CSCc1ccccc1)NS2(=O)=O [Benzthiazide] | – | – | – | B-score functional assay (human NTCP [1]; [3]): -0.047; Ranking score (human NTCP [1]; [4]): 714.84; B-score binding assay (human NTCP [2]; [5]): 0.39 |
| CC1(C)S[C@@H]2[C@H](NC(=O)Cc3ccccc3)C(=O)N2[C@H]1C(=O)O [Benzylpenicillin sodium] | – | – | – | Ranking score (human NTCP [1]; [9]): 344.346; B-score functional assay (human NTCP [1]; [10]): -0.043; B-score binding assay (human NTCP [2]; [11]): -1.247 |

Second part, led by results:

| B-score functional assay (human NTCP [1]; [6]) | Ranking score (human NTCP [1]; [7]) | B-score binding assay (human NTCP [2]; [8]) | SMILES | also measured |
| --- | --- | --- | --- | --- |
| 2.141 | 978.724 | 0.189 | COc1ccc(CC2c3cc(OC)c(OC)cc3CC[N+]2(C)CCC(=O)OCCCCCOC(=O)CC[N+]2(C)CCc3cc(OC)c(OC)cc3C2Cc2ccc(OC)c(OC)c2)cc1OC (stereo not drawn) [Atracurium besylate] | – |
| 0.011 | 847.665 | 1.257 | Nc1ncn([C@@H]2O[C@H](CO)[C@@H](O)[C@H]2O)c(=O)n1 [Azacytidine-5] | – |
| 0.848 | 1033.89 | 1.025 | CC(Cc1cccc(C(F)(F)F)c1)NCCOC(=O)c1ccccc1 (stereo not drawn) [Benfluorex] | – |
| 0.062 | 933.857 | 2.274 | CCCCNc1ccc(C(=O)OCCOCCOCCOCCOCCOCCOCCOCCOCCOC)cc1 [Benzonatate] | – |
